Measured values taken from patent US10369089B2, “Iron oxide nanoparticles and methods of use thereof” (THE TRUSTEES OF THE UNIVERSITY OF PENNSYLVANIA, priority 2015, dated 2019).

Columns and labels:
[1] = test system: gingival and palatal tissues; parameters: species or system Sprague-Dawley rats; details: rat, in vivo
From the text: Each group was provided with the National Institutes of Health cariogenic diet 2000 and 5% sucrose water ad libitum. The experiment proceeded for 3 weeks. All animals were weighed weekly and their physical appearance was noted daily. All animals gained weight equally among the experimental groups and remained in good health during the experimental period. At the end of the experimental period, the animals were sacrificed and the jaws were surgically removed and dissected. All of the jaws were defleshed and the teeth were prepared for caries scoring according to Larson's modification of Keyes' system disease (see Larson, Animal models in cariology: symposium and workshop proceedings special supplement of microbiology abstracts, 1981; Bowen, Odontology, 2013; […] et al., Infect Immun, 2014; Horev, ACS Nano, 2015). Determination of the caries score of the codified jaws was performed by one calibrated examiner. Furthermore, both the gingival and palatal tissues were collected and processed for hematoxylin and eosin (HE) staining for histopathological analysis.

S. mutans biofilms = assay: Biofilm disruption after twice daily topical treatment (confocal microscopy); assay type: cell-based, Streptococcus mutans UA159; details: CAT-NP 0.5 mg/ml, H2O2 1%, in vitro
From the text: To determine the retention and the spatial distribution of CAT-NPs within an intact biofilm 3D architecture, multiphoton confocal microscopy and computational analysis were used (Xiao et al., PLoS Pathog. 2012; Klein et al., J Vis Exp, 2011; Koo et al., J Bacteriol, 2010). The exopolysaccharides (EPS) (in red) were labeled using […] Alexa Fluor 647-labeled dextran conjugate (10 kDa; 647/668 nm; Molecular Probes Inc., Invitrogen Corp., Carlsbad, Calif., USA) and the bacterial cells (in green) were stained with 2.5 μM SYTO 9 (485/498 nm; Molecular Probes Inc.). The CAT-NPs (in white) were detected via their inherent non-linear optical property using multiphoton confocal microscopy (Xiao et al., PLoS Pathog, 2012; Klein et al., J Vis Exp, 2011; Liao et al., Adv Funct Mater, 2013; Koo et al., J Bacteriol, 2010; Liao et al., Adv Funct Mater, 2013). Imaging was performed using a Leica SP5 multiphoton confocal microscope with a 20× LPlan N (1.05 numerical aperture) water immersion objective lens. […] The confocal images were analyzed using software for simultaneous visualization and quantification of EPS, bacterial cells and CAT-NPs within the intact biofilms. […] COMSTAT and ImageJ were used for quantitative analysis as previously described (Xiao et al., PLoS Pathog. 2012; Klein et al., J Vis Exp. 2011; Koo et al., J Bacteriol, 2010). […]

dental caries = assay: Rodent model of dental caries; assay type: in vivo, Sprague-Dawley rats; details: rats, topical twice-daily for 3 weeks; vs. vehicle control
Method: In brief, animal experiments were performed on a well-established rodent model of dental caries (Bowen, Odontology, 2013; […] et al., Infect Immun, 2014; Horev, ACS Nano, 2015; Koo et al., J Dent Res, 2005). Briefly, Sprague-Dawley rats, 15 days old, were purchased with their dams from Harlan Laboratories (Madison, Wis., USA) and screened for infection with S. mutans. Any animals infected with S. mutans prior to inoculation were removed from the study. The animals were then infected orally using an actively growing (mid-logarithmic) culture of S. mutans UA159 and their infection was checked via oral swabbing. Infected animals were randomly placed into four treatment groups (12 animals/group) and their teeth were treated topically using a custom-made applicator twice daily. The treatment groups included: […] Agents were applied topically (orally-delivered; 100 μL per rat) twice-daily for 3 weeks, with brief exposures (30 s) to simulate clinical use. Each group was provided with the National Institutes of Health cariogenic diet 2000 and 5% sucrose water ad libitum. The experiment proceeded for 3 weeks. All animals were weighed weekly and their physical appearance was noted daily. All animals gained weight equally among the experimental groups and remained in good health during the experimental period. […]

[2] = Degradation of purified glucans produced by GtfB and GtfD; assay type: biochemical; details: 0.1 M NaOAc pH 4.5, 37° C., 30 min
Method: Given that free-radicals produced from H2O2 catalysis can also degrade polysaccharides in vitro (Gao et al., Nanoscale, 2014), the amount of EPS in the CAT-NP-treated biofilms was analyzed following exposure to H2O2. For assessment of EPS degradation, 100 μg of (insoluble or soluble) glucans produced by purified glucosyltransferases (GtfB or GtfD) (Koo et al., Antimicrob Agents Chemother, 2002) were mixed with each of the treatment solutions (in 0.1 M NaOAc, pH 4.5) and incubated at 37° C. for 30 min. The glucans were manufactured as follows. Each of the Gtf enzymes (10 U) were mixed with a sucrose substrate buffer (100 mM sucrose, 20 μM dextran 9,000, 50 mM KCl, 1.0 mM KPO4, 1.0 mM CaCl2 and 0.1 mM MgCl2, pH 6.5) and incubated for 4 h at 37° C. After incubation, the glucans produced were collected by centrifugation, washed and the total amounts were determined by standard phenol-sulfuric acid colorimetric assay (Koo et al., J Antimicrob Chemother, 2003; Koo et al., Antimicrob Agents Chemother, 2002). One hundred micrograms of glucan was mixed with each of the treatment solutions (total reaction volume of 300 μl in 0.1 M NaOAc, pH 4.5) and incubated at 37° C. for 30 min with rocking. After incubation, the amount of reducing sugars was determined by Somogyi-Nelson colorimetric assay.

[3] = test system: insoluble and soluble EPS; assay: EPS degradation within biofilms; assay type: cell-based, Streptococcus mutans UA159; details: 30 min after H2O2 exposure; vs control
From the text: Biofilms were formed on saliva-coated hydroxyapatite (sHA) surfaces (tooth enamel-like material) using Streptococcus mutans, a well-established biofilm-forming, acidogenic and matrix-producing oral pathogen (FIG. 9). The hydroxyapatite discs (surface area, 2.7±0.2 cm^2) were purchased from Clarkson Chromatography and the bacteria strain, Streptococcus mutans UA159, was purchased from ATCC. The biofilm method is based on the saliva-coated hydroxyapatite (sHA) disc model (see Xiao et al., PLoS Pathog. 2012; Klein et al., J Vis Exp. 2011; Falsetta et al., Infect Immun., 2014; Koo et al., J Bacteriol, 2010; Koo et al., J Antimicrob Chemother, 2003). […] The biofilms were collected and analyzed at specific time points (19 h, 29 h and 43 h) by means of confocal fluorescence imaging, microbiological and biochemical analyses (Xiao et al., PLoS Pathog. 2012; Klein et al., J Vis Exp. 2011; Falsetta et al., Infect Immun., 2014; Koo et al., J Bacteriol, 2010; Koo et al., J Antimicrob Chemother, 2003).
To investigate whether CAT-NP-mediated H2O2 catalysis and generation of free-radicals in situ can kill embedded bacteria and degrade the EPS-matrix within biofilms, the following experiments were performed. […] Biofilms treated with CAT-NPs (0.5 mg/ml) were immediately exposed to H2O2 (0.1 to 1%, v/v) and the number of viable cells and EPS content were determined (FIG. 13A and FIG. 14). […]

Molecule: OO [H2O2, hydrogen peroxide]
- cytotoxic effects in gingival and palatal tissues (histopathology) [1]: no cytotoxic effects
- biofilm disruption (accumulation of bacterial cells and EPS-matrix) (S. mutans biofilms): limited anti-biofilm effects
- initiation and severity of carious lesions (caries scoring) (dental caries): without significant effect
- degradation of glucans from GtfB and GtfD (glucose released) [2]: failed to cleave either glucan
- amounts of insoluble and soluble EPS within biofilms [3]: inability to reduce EPS within biofilms

Molecule: iron oxide nanoparticles [IO-NPs]
- cytotoxic effects in gingival and palatal tissues (histopathology) [1]: no cytotoxic effects
